Data on two compounds can be found in paper PMC5095007, “Liposomal bortezomib is active against chronic myeloid leukemia by disrupting the Sp1-BCR/ABL axis” (Oncotarget, 2016).

As a reminder, the IC50 is the concentration at which inhibition is half-maximal. One may read the AUC(0-inf) as the area under the concentration-time curve extrapolated to infinity. Low readings indicate less exposure, high ones more exposure. A word on the Cmax: it is the highest concentration seen after dosing. In general, clearance refers to the rate of elimination divided by the concentration. Read a low clearance as a low capacity for elimination. A word on the half-life: it is the time in which the quantity being followed falls by half.

The structures appear in SMILES notation.

The subject of data set [1] is K562 single tumor cells. Kind of data set: Chemosensitization of single tumor cells to doxorubicin, MTT assay. The format is cell-based. The conditions noted are these: DOX alone (no BORT), mean ±SD, n=6. The protocol: To investigate how L-BORT influences tumor cell growth, tumors were harvested from K562 tumor bearing mice and separated into single cells by collagenase. The single tumor cells were then cultured in RPMI1640 medium with 10% FBS and the cell survival was then evaluated in the presence of doxorubicin combined with subtoxic BORT. As shown in Figure 5C and Table 4, a synergistic effect of toxicity to single tumor cells was found between DOX and free BORT, consistent with what we have observed in K562 cells. […] L-BORT, with enhanced BORT delivery, amplified the synergy effect to approximately a 70-fold increase in chemosensitivity (p < 0.05).
K562 cells (10×10^6) were subcutaneously injected into the flank of 4-6 week old NOD/SCID mice (The Jackson Laboratory, Bar Harbor, ME). When the tumor size approached 1000 mm^3, the tumors were harvested from mouse flank and cut into pieces in PBS buffer. Collagenase was added into the above buffer and incubated for 2 hours at 37°C with shaking. The digested tumor cell suspension was filtered through a cell strainer and centrifuged at 1200 rpm for 5 minutes. The separated tumor cells were kept in cell frozen medium and stored in liquid N2 until use. […]
On the technique in general: Formazan colour is commonly taken as a measure of viable cells.

Data set [2] has as its system K562/DOX cells. As to the kind of experiment: Chemosensitization to doxorubicin by subtoxic BORT formulations, MTT/MTS assay. Particulars: Homo sapiens, DOX alone (No BORT), mean ±SD, n=6. The format is cell-based.
Experimental: To determine if L-BORT and Tf-L-BORT could enhance the cytotoxicity of agents used for CML therapy, we employed the MTS assay to evaluate the cytotoxic effects of doxorubicin, alone and in combination with a subtoxic BORT formulation at 2 nM to doxorubicin resistant K562/DOX cells. Initially, we determined the effects of drug treatment sequences on chemosensitivities by treating the K562/DOX cells with 100 nM doxorubicin for 24-hour before, after or simultaneous addition of subtoxic 2 or 10 nM Tf-L-BORTs followed by another 24 hour co-incubation. […] We then applied this treatment strategy to K562/DOX cells exposed to various concentrations of doxorubicin.
To evaluate BORT toxicity, K562 cells were treated by different concentration of free- or L-BORT. Regarding to the chemosensitivity to doxorubicin, the K562/ DOX cells were pre-treated with doxorubicin for 24 hours and then subtoxic BORT formulations were added for additional 24 hours. Cellular viability was assessed by MTT proliferation assays (Promega, Madison, WI).
For the studies, 24-hour treatment. At this point, 20 μL of CellTiter 96®
AQueous One Solution was added to each well and
37 °C for another 1 hour.
Data set [3] concerns BCR/ABL protein expression in K562 cells. Kind of data set: Western blotting of BCR/ABL and Sp1. The format is cell-based. The protocol: Sp1 siRNA, miR-29b and their scrambles were introduced into K562 cells by Lipofectamine™ 2000 (Invitrogen) and the Western blotting was performed as previously described. The antibodies used are: Sp1, DNMT3a, β-actin and ubiquitin (Santa Cruz Biotechnology, Santa Cruz, CA); ABL, phospho-ABL, caspase-3 and caspase-8 (Cell Signaling Technology, Danvers, MA); Parp, CRKL and p-CRKL (Millipore, Billerica, MA).
(In general: In western blotting, separated proteins are transferred to a membrane and probed.)

Data set [4] in a line: in vivo. Particulars: ICR, mouse, plasma, iv, 1 mg/kg.
Experimental: (§1) BORT exposure and elimination in mice were investigated following a tail vein injection of L-BORT at 1.0 mg/kg dose. […] PK parameters were obtained by Non-compartmental PK analysis in Phoenix WinNonlin.
(§2) BORT (1.0 mg/kg) was injected into ICR mice via the tail vein and blood samples were collected at various time points. Plasma was isolated by centrifugation at 1500×g for 10 minutes and stored at −20°C. Concentration of BORT in the plasma was calculated from boron concentration the sample, which was measured by coupled plasma-optical emission spectrometers (ICP-OES). For ICP-OES measurement, the plasma samples were prepared as previously described [28]. Data analysis and PK parameter calculations were carried out in Phoenix® WinNonlin® 6.3 (Certara, Princeton, NJ).
Data set [5] has as its system BCR/ABL protein expression in KU812 cells. Kind of data set: Western blotting of BCR/ABL and Sp1. Particulars: KU812, different doses of BORT for 24 hours. The format is cell-based.
The nature of data set [6]: Toxicity assay in vivo in normal mice. Particulars: normal BALB/cByJ mice, 2.5 mg/kg every four days, tail vein; in two weeks. The protocol:
To determine the toxicity in vivo, liposomal vehicle, free or L-BORT was administrated through the tail vein to normal BALB/cByJ mice (6-8 weeks old, 22 ± 5 g) in a small volume (0.2 ml) at normal pressure. The dose used was 2.5 mg/kg every four days.

In data set [7] the test system is K562 cells. Kind of data set: Cytotoxicity of BORT formulations, MTT/MTS cell proliferation assay. The format is cell-based. Particulars: mean ±SD, n=6.
Experimental: To evaluate BORT toxicity, K562 cells were treated by different concentration of free- or L-BORT. […] Cellular viability was assessed by MTT proliferation assays (Promega, Madison, WI).
Data set [8] can be described thus: Pharmacokinetics after tail vein injection, plasma BORT by ICP-OES. Particulars: ICR mice, 1.0 mg/kg i.v. tail vein, mean (%CV), n=5.
Experimental: as §1, §2
Data set [9] deals with imatinib-refractory CML. Details: method as in PMID 21816374. Particulars: pilot clinical trial, imatinib-refractory CML patients; ref [15]; cited from earlier work.

With `COc1cccc2c1C(=O)c1c(O)c3c(c(O)c1C2=O)C[C@@](O)(C(=O)CO)C[C@@H]3O[C@H]1C[C@H](N)[C@H](O)[C@H](C)O1` [DOX, doxorubicin], the IC50 in data set [1] (48 hours) turned out to be 17.1 ± 0.534 µM; in [1] (Homo sapiens, K562, 48 h), 17 µM; in [2], 20.2 ± 8.75 µM. Moreover, the BCR/ABL expression result in [3] (K562, various doses, 48 hours) is recorded as “dose-dependently downregulated”.

In [4], `CC(C)C[C@H](NC(=O)[C@H](Cc1ccccc1)NC(=O)c1cnccn1)B(O)O` [Free BORT, bortezomib] had an AUC(0-inf) of 469 ng·h/mL, a Cmax of 758 ng/mL, a clearance of 25.2 mL/min/kg and a half-life of 12.4 h. Also, in data set [5], the “Sp1 and BCR/ABL protein expression” value is “inhibition of Sp1 and BCR/ABL protein expression”. In data set [6], this compound had a mice died of 50%. For the same compound, in data set [7] (48 hours), it took 0.0393 ± 0.00227 µM to reach half-maximal inhibition (IC50). This compound gave an IC50 in data set [7] (Homo sapiens, K562, 48 h) of 0.039 µM. In [8] (1 mg/kg), the AUCinf is given as 0.661 (12.8%) μg·hr/mL. Besides, the CL in data set [8] (total body clearance) is listed as 1.51 (17.9%) L/hr/kg. Besides, the V in [8] (volume of distribution) is reported as 27.1 (17.6%) L/kg. The “Sp1 and BCR/ABL protein expression” value in data set [3] (K562, different doses of BORT for 24 hours) is “inhibition of Sp1 and BCR/ABL protein expression”. For the same compound, in data set [9], the clinical efficacy entry is “minimal efficacy” and the clinical toxicity entry was “considerable toxicity”.
